# Target: T1, PLK1 enzyme KD (Kinase Domain) 2-345 (Homo sapiens, UniProt P53350)
# T1 construct: PLK1 kinase domain (corresponding to residues 2-345) was PCR amplified; His tag (N, cleaved yes); TEV cleavage site (N, cleaved yes); made in house; host or cells: High5 insect cells (baculovirus generated in Sf9)
# Assay: Biochemical assay for inhibitors of PLK-1 kinase activity (trans-phosphorylation, Dowex resin, 33P-ATP)
# Conditions: PLK1 KD 2-345 3 nM, 40 microM ATP, 85 microM alpha-casein, 60 minutes at room temperature
# Description: The inhibitory activity of putative kinase inhibitors and the potency of selected compounds were determined using a trans-phosphorylation assay.
# Three cycles of mixing are done immediately after the addition of the resin.
# T1 sequence (P53350 2-345): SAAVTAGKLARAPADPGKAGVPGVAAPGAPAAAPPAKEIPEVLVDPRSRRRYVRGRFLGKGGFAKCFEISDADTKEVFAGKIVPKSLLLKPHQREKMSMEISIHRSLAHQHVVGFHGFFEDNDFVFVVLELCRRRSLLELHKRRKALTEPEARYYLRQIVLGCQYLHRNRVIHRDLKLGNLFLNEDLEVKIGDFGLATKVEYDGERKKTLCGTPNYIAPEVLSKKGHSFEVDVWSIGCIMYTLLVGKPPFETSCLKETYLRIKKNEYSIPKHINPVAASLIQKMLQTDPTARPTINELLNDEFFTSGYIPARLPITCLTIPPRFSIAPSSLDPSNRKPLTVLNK
smiles,measurement,value
O=C1NCCc2[nH]c(-c3ccnc(Nc4ccccc4)n3)cc21 [Reference Compound],IC50,110 nM
